Laboratory results published in paper PMC11944513, “Investigation on Human Carbonic Anhydrase IX and XII Inhibitory Activity and A549 Antiproliferative Activity of a New Class of Coumarinamides” (Pharmaceuticals, 2025).

What was measured:
h-CA I = h-CA I (Homo sapiens, UniProt P00915); assay: stopped-flow CO2 hydrase assay, h-CA I
[1] = test system: bronchial adenocarcinoma cells (A549); assay: cell viability (MTT assay), A549; assay type: cell-based, human; settings: for IC50: Homo sapiens, A549, 48 h exposure, nonlinear regression, predictive estimates
Method: The medium was supplemented with 10% heat-inactivated fetal bovine serum (FBS), 1% penicillin/streptomycin and 1% sodium pyruvate.
Cells were seeded at different densities according to the different experimental techniques performed (MTT assay and cell cycle analysis) and left to adhere for 24 h. […] The final DMSO concentration was kept below 0.3%. Cell viability was evaluated at up to 72 h post-treatment. Images were acquired 48 h after treatments by means of a light phase-contrast microscope equipped with a camera (Leica). Images were acquired and analyzed by the Leica Application Suite LAS EZ version 3.4 (Leica, Wetzlar, Germany).
(§1) BEAS and A549 cells were seeded in 96-well culture-treated plates (Falcon®, Corning Incorporated, Brooklyn, NY, USA) at a density of 0.5 × 10^4 cells/well. Untreated cells were set as the experimental control, representing 100% of cell viability. Exposure times varied from 24 up to 72 h. At the established time points (24, 48 and 72 h), the exposure medium was replaced with fresh medium containing 0.5 mg/mL 3-(4,5-dimethylthiazol-2-yl)-2,5-diphenyltetrazolium bromide (MTT) (Merck, Darmstadt, Germany) and processed as previously reported. The optical density in each well was measured at a wavelength of 540 nm using a spectrophotometer (Thermo Fisher Scientific, Waltham, MA, USA). Each experiment was performed in triplicate per experimental conditions (n = 3).

[2] = test system: normal bronchial epithelial cells (BEAS-2B); assay: cell viability (MTT assay), BEAS-2B; assay type: cell-based, human; settings: for IC50: Homo sapiens, BEAS-2B, 48 h exposure, nonlinear regression, predictive estimates
Method: Human bronchial epithelial (BEAS-2B; CRL-3588) and human lung carcinoma (A549; CCL-185) cell lines were obtained from ATCC®. BEAS and A549 cells were maintained in complete RPMI 1640 (Merck, Darmstadt, Germany) at 37 °C and 5% CO2. The medium was supplemented with 10% heat-inactivated fetal bovine serum (FBS), 1% penicillin/streptomycin and 1% sodium pyruvate.
(§2) Cells were seeded at different densities according to the different experimental techniques performed (MTT assay and cell cycle analysis) and left to adhere for 24 h. Next, the medium was removed, and cells were treated with tested compounds, dissolved in dimethyl sulfoxide (DMSO) to achieve concentrations ranging from 0 µM (untreated control = CTRL) to 150 µM. The final DMSO concentration was kept below 0.3%. Cell viability was evaluated at up to 72 h post-treatment. Images were acquired 48 h after treatments by means of a light phase-contrast microscope equipped with a camera (Leica). Images were acquired and analyzed by the Leica Application Suite LAS EZ version 3.4 (Leica, Wetzlar, Germany).
as §1

h-CA IX = h-CA IX (Homo sapiens, UniProt Q16790); assay: stopped-flow CO2 hydrase assay, h-CA IX; settings: for selectivity on h-CA IX over h-CA XII (in words): comparison of Ki values
h-CA XII = h-CA XII (Homo sapiens, UniProt O43570); assay: stopped-flow CO2 hydrase assay, h-CA XII
h-CA II = h-CA II (Homo sapiens, UniProt P00918); assay: stopped-flow CO2 hydrase assay, h-CA II
A549 cells [3] = assay: cytotoxicity assay (LDH test); assay type: cell-based, human; settings: 24 h; for LDH released, fold increase respective to untreated cells: A549, 150 µM; for cytotoxicity occurrence (LDH release): A549, 0–150 µM
Method: as §2
To assess cytotoxicity in A549 cells after their treatment with the tested compounds, the amount of lactate dehydrogenase released into the culture medium was quantified using the CytoTox 96 non-radioactive cytotoxicity assay (Promega, Madison, WI, USA) according to the manufacturer’s instructions. Cell supernatants were collected from the same cultures processed for the MTT assay after 24 h of treatment and the optical density values obtained were normalized to those measured from the MTT assay.

A549 cells [4] = assay: cell cycle analysis (PI flow cytometry); assay type: cell-based, human; settings: A549, 0–150 µM, 48 h; S phase cells increased vs untreated control
Method: as §2
[…] At each time point, cells were detached using StemPro™ Accutase™, pelleted by centrifugation, and fixed overnight at 4 °C in 70% v/v cold ethanol. After fixation, cells were processed as described elsewhere. The PI fluorescence was detected by a flow cytometer equipped with a 488 nm laser (CytoFlex flow cytometer, Beckman Coulter, CA, USA) in the FL-3 channel. A minimum of 10,000 events/sample were acquired and analyzed with the CytExpert Software, version 2.3 (Beckman Coulter, CA, USA), and the percentages of cells in the G1, S, or G2 phase of the cell cycle were calculated using the ModFit LT™ Software, version 5.0 (Verity Software House, Topsham, ME, USA).

Chain of h-CA I (P00915 whole entry): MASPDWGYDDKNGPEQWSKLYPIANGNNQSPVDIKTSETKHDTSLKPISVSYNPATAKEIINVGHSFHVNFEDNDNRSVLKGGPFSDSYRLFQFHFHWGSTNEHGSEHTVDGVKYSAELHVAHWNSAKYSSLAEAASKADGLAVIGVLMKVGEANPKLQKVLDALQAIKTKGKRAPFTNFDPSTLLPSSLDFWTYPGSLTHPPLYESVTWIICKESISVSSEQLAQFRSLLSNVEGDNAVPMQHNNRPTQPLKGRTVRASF
Chain of h-CA XII (O43570 25-354): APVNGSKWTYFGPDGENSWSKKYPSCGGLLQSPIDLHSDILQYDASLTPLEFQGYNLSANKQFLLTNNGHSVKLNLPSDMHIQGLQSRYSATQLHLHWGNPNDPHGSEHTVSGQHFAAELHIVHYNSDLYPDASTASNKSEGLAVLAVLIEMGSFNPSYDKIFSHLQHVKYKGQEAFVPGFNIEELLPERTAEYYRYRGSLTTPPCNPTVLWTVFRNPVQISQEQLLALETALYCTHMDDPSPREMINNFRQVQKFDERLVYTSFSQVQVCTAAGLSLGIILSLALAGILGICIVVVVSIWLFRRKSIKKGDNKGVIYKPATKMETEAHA

| Ki (h-CA I) [µM] | IC50 [1] [µM] | Ki (h-CA IX) [µM] | Ki (h-CA XII) [µM] | Ki (h-CA II) [µM] | selectivity on h-CA XII over h-CA IX (h-CA XII; ratio of Ki values) [fold] | Structure (SMILES) | SI (selectivity index, IC50 BEAS/IC50 A549 ratio) ([1]; 48 h) | IC50 [2] [µM] | LDH released, fold increase respective to untreated cells (A549 cells [3]) [fold] | selectivity on h-CA IX over h-CA XII (in words) (h-CA IX) | arrest of cell cycle progression (A549 cells [4]) | cytotoxicity occurrence (LDH release) (A549 cells [3]) | cell viability of A549 cells ([1]; 1 µM, 48 h) | cell viability of BEAS cells ([2]; 1 µM, 48 h) |
| --- | --- | --- | --- | --- | --- | --- | --- | --- | --- | --- | --- | --- | --- | --- |
| > 100 | 55.9 ± 1.12 | 5.5 | 43.1 | > 100 | – | O=C(NCCc1ccccc1Cl)c1cc2ccc(O)cc2oc1=O [Compound 29, N-(2-Chlorophenethyl)-7-Hydroxy-2-Oxo-2H-Chromene-3-Carboxamide] | 1.386 | 77.5 ± 1.08 | – | good selectivity against h-CA IX over h-CA XII | – | – | – | – |
| > 100 | 59.7 ± 1.07 | 7.5 | 55.8 | > 100 | – | O=C(NCCc1cccc(Cl)c1)c1cc2ccc(O)cc2oc1=O [Compound 30, N-(3-Chlorophenethyl)-7-Hydroxy-2-Oxo-2H-Chromene-3-Carboxamide] | 1.465 | 87.4 ± 1.06 | – | good selectivity against h-CA IX over h-CA XII | – | – | – | – |
| > 100 | 156.9 ± 1.12 | 49.3 | 9.1 | > 100 | ~5 | O=C(c1cc2ccc(O)cc2oc1=O)N1CCN(c2ccccc2)CC1 [Compound 32, 7-Hydroxy-3-(4-Phenylpiperazine-1-Carbonyl)-2H-Chromen-2-One] | 2.547 | 399.7 ± 1.68 | – | – | – | – | – | – |
| > 100 | 50 ± 1.28 | 70.3 | 9.2 | > 100 | – | Cc1ccc(N2CCN(C(=O)c3cc4ccc(O)cc4oc3=O)CC2)cc1C [Compound 38, 3-(4-(3,4-Dimethylphenyl)piperazine-1-Carbonyl)-7-Hydroxy-2H-Chromen-2-One] | 3.747 | 187.4 ± 1.27 | – | – | able to arrest cells at the G1/S checkpoint | None of the compounds administered displayed cytotoxicity | – | – |
| > 100 | 108 ± 1.28 | 32.8 | 22.5 | > 100 | – | COc1ccc(N2CCN(C(=O)c3cc4ccc(O)cc4oc3=O)CC2)cc1 [Compound 44, 7-Hydroxy-3-(4-(4-Methoxyphenyl)piperazine-1-Carbonyl)-2H-Chromen-2-One] | 1.888 | 203.5 ± 1.19 | – | – | – | – | – | – |
| > 100 | 25.7 ± 1.14 | 22.6 | 8.4 | > 100 | – | O=C(c1cc2ccc(O)cc2oc1=O)N1CCN(c2ccc(C(F)(F)F)cc2)CC1 [Compound 45, 3-(4-(4-Trifluoromethylphenyl)piperazine-1-Carbonyl)-7-Hydroxy-2H-Chromen-2-One] | 2.096 | 53.9 ± 1.07 | – | – | – | – | – | – |

More lines, now with the values behind:

| Structure (SMILES) | Ki (h-CA I) [µM] | IC50 [1] [µM] | Ki (h-CA IX) [µM] | Ki (h-CA XII) [µM] | Ki (h-CA II) [µM] | selectivity on h-CA XII over h-CA IX (h-CA XII; ratio of Ki values) [fold] | SI (selectivity index, IC50 BEAS/IC50 A549 ratio) ([1]; 48 h) | IC50 [2] [µM] | LDH released, fold increase respective to untreated cells (A549 cells [3]) [fold] | selectivity on h-CA IX over h-CA XII (in words) (h-CA IX) | arrest of cell cycle progression (A549 cells [4]) | cytotoxicity occurrence (LDH release) (A549 cells [3]) | cell viability of A549 cells ([1]; 1 µM, 48 h) | cell viability of BEAS cells ([2]; 1 µM, 48 h) |
| --- | --- | --- | --- | --- | --- | --- | --- | --- | --- | --- | --- | --- | --- | --- |
| Cc1ccccc1CNC(=O)c1cc2ccc(O)cc2oc1=O [Compound 5, 7-Hydroxy-N-(2-Methylbenzyl)-2-Oxo-2H-Chromene-3-Carboxamide] | > 100 | 248.2 ± 1.57 | 25.4 | 35.5 | > 100 | – | 0.730 | 181.2 ± 1.2 | – | – | – | – | – | – |
| Cc1cccc(CNC(=O)c2cc3ccc(O)cc3oc2=O)c1 [Compound 6, 7-Hydroxy-N-(3-Methylbenzyl)-2-Oxo-2H-Chromene-3-Carboxamide] | > 100 | 90 ± 1.07 | 82.5 | 9.3 | > 100 | – | 1.309 | 117.9 ± 1.08 | – | – | – | – | – | – |
| Cc1ccc(CNC(=O)c2cc3ccc(O)cc3oc2=O)cc1 [Compound 7, 7-Hydroxy-N-(4-Methylbenzyl)-2-Oxo-2H-Chromene-3-Carboxamide] | > 100 | 85.8 ± 1.13 | 33.7 | 8.8 | > 100 | – | – | 157.8 ± 1.07 | ~2 | – | – | – | – | – |
| COc1ccc(CNC(=O)c2cc3ccc(O)cc3oc2=O)cc1 [Compound 9, 7-Hydroxy-N-(4-Methoxylbenzyl)-2-Oxo-2H-Chromene-3-Carboxamide] | > 100 | 68.2 ± 1.11 | 53.8 | 9.1 | > 100 | – | – | 116 ± 1.22 | ~3 | – | – | – | – | – |
| O=C(NCc1ccccc1Cl)c1cc2ccc(O)cc2oc1=O [Compound 19, N-(2-Chlorobenzyl)-7-Hydroxy-2-Oxo-2H-Chromene-3-Carboxamide] | > 100 | 32 ± 1.22 | 19.3 | 64.9 | > 100 | – | 1.271 | 40.7 ± 1.1 | – | about three times more active on h-CA IX | – | – | – | – |
| O=C(NCc1ccc(Cl)cc1Cl)c1cc2ccc(O)cc2oc1=O [Compound 22, N-(2,4-Dichlorobenzyl)-7-Hydroxy-2-Oxo-2H-Chromene-3-Carboxamide] | > 100 | 83.3 ± 1.08 | 22 | 84.1 | > 100 | – | 1.150 | 95.8 ± 1.07 | – | – | – | – | – | – |
| O=C(NCc1ccc(Cl)c(Cl)c1)c1cc2ccc(O)cc2oc1=O [Compound 23, N-(3,4-Dichlorobenzyl)-7-Hydroxy-2-Oxo-2H-Chromene-3-Carboxamide] | > 100 | 39.5 ± 1.06 | 46.2 | 21 | > 100 | – | – | 73.4 ± 1.1 | – | – | able to arrest cells at the G1/S checkpoint | None of the compounds administered displayed cytotoxicity | – | – |
| COc1cccc2c1C(=O)c1c(O)c3c(c(O)c1C2=O)C[C@@](O)(C(=O)CO)C[C@@H]3O[C@H]1C[C@H](N)[C@H](O)[C@H](C)O1 [doxorubicin, reference compound] | – | – | – | – | – | – | – | – | – | – | – | – | dramatically decreased | dramatically decreased |
